Data taken from patent publication US6974804B2, “Esters” (Unilever Home & Personal Care USA, division of Conopco, Inc., priority 2000, dated 2005).

Legend:
Type in all cases: physicochemical
[1] = Stability testing of gels: crystal growth visible by eye on storage at 37° C.
Experimental: Gels were made up using 10% structurant in a 60:40 mixture of Hydrogenated Polyisobutene (Panalene L14E):DC245. The gels, in sealed glass bottles, were left to stand for 18 hrs at room temperature, after which they were transferred to an oven thermostatically controlled to 37° C. Samples were checked periodically for signs of crystal growth visible by eye. REF1 is cellobiose octanonanoate.
Gels were made up and tested in accordance with the procedure in Example 6, as such or modified by employing a weight ratio of 9% of REF1 and 1% of an additional structurant as specified in Table 13 below.
The test procedure of Example 9 was repeated, but using ACB structurant REF2 alone as the structurant or to which a CHME structurant was added.

[2] = Gelling of water-immiscible cosmetic liquids in 96 well glass micro-titre plate; set-up: key: gel; g4: gel after overnight (18 hrs) storage at 4° C.; g22: gel after overnight (18 hrs) storage at 22° C.; sg: soft gel; sg22: soft gel after overnight (18 hrs) storage at 22° C.; solution; *: the test at 4° C. was not carried out; conditions: for gelling of ISA: 150° C. 2.5 hours, cooled to ambient
Experimental: In this Example, various samples of esterified cellobiose prepared as in Example 1 or 2 above, were used to gel water-immiscible cosmetic liquids, in accordance with the procedure given below, in which a large number of gels can be prepared simultaneously.
The samples were tested in a 96 well (8×12 rows) glass micro-titre plate. […] About 0.01 or 0.02 g of each esterified cellobiose material was placed into 8 consecutive wells in a single row, so that each well contained approximately 5% or 10% of the cellobiose ester. The balance in each well comprised the cosmetic liquid by addition of approximately 0.2 g of the respective liquid to each cell. A glass lid was placed on top of the plate. The plate was carefully placed in a thermostatically controlled fan-assisted oven set at 150° C. for 2.5 hours. The plate was removed from the oven and allowed to cool naturally to ambient laboratory temperature. The contents of the wells were assessed at the end of the cooling period, by visual inspection and by poking the contents of each well with a micro-spatula. The plates were stored at […] for 18 hours and the contents inspected, and further stored for 18 hours at 4° C. and inspected for a third time. The results obtained in the tests are summarised in Table 5 below, in which the legend is as follows: […]

[3] = Light transmission at 580 nm (% T); conditions: 580 nm
Experimental: The translucency of a composition may be measured by placing a sample of standardised thickness in the light path of a spectrophotometer and measuring transmittance, as a percentage of light transmitted in the absence of the gel.
This test was carried out using a dual-beam spectrophotometer. The sample of composition was poured hot into a 4.5 ml cuvette made of poly(methyl-methacrylate) (PMMA) and allowed to cool to an ambient temperature of 20-25° C. Such a cuvette gives a 1 cm thickness of composition. […] A transmittence measured at any temperature in the range from 20-25° C. is usually adequately accurate, but measurement is made at 22° C. if more precision is required.

[4] = Visual assessment score (clarity of gel in 1 cm cuvette); conditions: for Clarity Visual (appearance): 9% REF4 plus 1% of the named material in 60:40 hydrogenated polydecene:DC245; for Clarity Visual (assessment score): 9% REF4 plus 1% of the named material, scale −12 to 8; for Visual: gel in 60:40 w/w Silkflo 364:DC245, score scale −12 to 8
Text: A gel contained within a 1 cm thick cuvette was placed directly on to a sheet of white paper on which 21 sets of figures where printed in black. The size and thickness of the figures varied systematically and were numbered from −12 (the largest, thickest set) through 0 to 8 (the smallest thinnest set) The score given to each gel was the highest numbered set which could be read clearly through the gel, the higher the number, the higher the clarity.

[5] = 5% cellobiose ester in Fluid AP
[6] = 5% cellobiose ester in Mineral oil
[7] = 5% cellobiose ester in Polydecene
[8] = 10% cellobiose ester in Fluid AP
[9] = 10% cellobiose ester in Mineral oil
[10] = 10% cellobiose ester in Polydecene
[11] = 9% REF4 plus 1% of the named material
[12] = Ex 2.6:REF 4 at stated weight ratio, total 10% in 60:40 w/w Silkflo 364NF:DC245

| Compound | gelling of DC556 ([2]; 5% cellobiose ester in DC556) | gelling of Fluid AP [2, 5] | gelling of ISA ([2]; 5% cellobiose ester in ISA) | gelling of Mineral oil [2, 6] | gelling of Polydecene [2, 7] | gelling of DC556 ([2]; 10% cellobiose ester in DC556) | gelling of Fluid AP [2, 8] | gelling of ISA ([2]; 10% cellobiose ester in ISA) | gelling of Mineral oil [2, 9] | gelling of Polydecene [2, 10] | Visual [4] | also measured |
| --- | --- | --- | --- | --- | --- | --- | --- | --- | --- | --- | --- | --- |
| CCCCCCCCCCCCCCCC(=O)OC1OC(COC(=O)CCCCCCCC)C(OC2OC(COC(=O)CCCCCCCC)C(OC(=O)CCCCCCCC)C(OC(=O)CCCCCCCC)C2OC(=O)CCCCCCCC)C(OC(=O)CCCCCCCC)C1OC(=O)CCCCCCCC (mixture of isomers) [Ex 1.8] | gel | gel | g22 | g22 | gel | gel | gel | g22 | g22 | gel | – | Observations ([1]; 9% of REF1 and 1% of additional structurant, after 15 days at 37° C.): No crystals after 15 days at 37 °C |
| CCCCCCCCCC(=O)OCC1OC(OC2C(COC(=O)CCCCCCCCC)OC(OC(C)=O)C(OC(=O)CCCCCCCCC)C2OC(=O)CCCCCCCCC)C(OC(=O)CCCCCCCCC)C(OC(=O)CCCCCCCCC)C1OC(=O)CCCCCCCCC (mixture of isomers) [Ex 2.5] | gel | gel | gel | gel | gel | – | – | – | – | – | – | – |
| CCCCCCCCCC(=O)OCC1OC(OC2C(COC(=O)CCCCCCCCC)OC(OC(=O)c3ccccc3)C(OC(=O)CCCCCCCCC)C2OC(=O)CCCCCCCCC)C(OC(=O)CCCCCCCCC)C(OC(=O)CCCCCCCCC)C1OC(=O)CCCCCCCCC (mixture of isomers) [Ex 2.6] | – | – | – | – | – | – | – | – | – | – | – | Clarity % T [3, 11]: 4.5%; Clarity Visual (appearance) [4]: translucent; Clarity Visual (assessment score) [4]: −8 |
| CCCCCCCCCC(=O)OCC1OC(OC2C(COC(=O)CCCCCCCCC)OC(OC(=O)CCCCC)C(OC(=O)CCCCCCCCC)C2OC(=O)CCCCCCCCC)C(OC(=O)CCCCCCCCC)C(OC(=O)CCCCCCCCC)C1OC(=O)CCCCCCCCC (mixture of isomers) [Ex 2.11] | gel | gel | gel | gel | gel | gel | gel | gel | gel | gel | – | – |
| CCCCCCCCCCCCCCCC(=O)OC1OC(COC(=O)CCCCCCCCC)C(OC2OC(COC(=O)CCCCCCCCC)C(OC(=O)CCCCCCCCC)C(OC(=O)CCCCCCCCC)C2OC(=O)CCCCCCCCC)C(OC(=O)CCCCCCCCC)C1OC(=O)CCCCCCCCC (mixture of isomers) [Ex 2.12] | gel | gel | g22 | gel | gel | gel | gel | gel | gel | gel | – | – |
| CCCCCCCCCCCCCCCC(=O)OC1OC(COC(=O)CCCCCCCCC)C(OC2OC(COC(=O)CCCCCCCCC)C(OC(=O)CCCCCCCCC)C(OC(=O)CCCCCCCCC)C2OC(=O)CCCCCCCCC)C(OC(=O)CCCCCCCCC)C1OC(=O)CCCCCCCCC (mixture of isomers) [Ex 2.13] | gel | gel | gel | gel | gel | gel | gel | gel | gel | gel | – | – |
| CCCCCCCCC(=O)OCC1OC(OC2C(COC(=O)CCCCCCCC)OC(OC(=O)C3CCCCC3)C(OC(=O)CCCCCCCC)C2OC(=O)CCCCCCCC)C(OC(=O)CCCCCCCC)C(OC(=O)CCCCCCCC)C1OC(=O)CCCCCCCC (mixture of isomers) [Ex 3.3, cellobiose heptanonanoate monocyclohexanoate] | – | – | – | – | – | – | – | – | – | – | >8 | % T ([3]; gel in 60:40 w/w Silkflo 364:DC245): 53% |
| CCCCCCCCC(=O)OCC1OC(OC2C(COC(=O)CCCCCCCC)OC(OC(=O)C3CCCC3)C(OC(=O)CCCCCCCC)C2OC(=O)CCCCCCCC)C(OC(=O)CCCCCCCC)C(OC(=O)CCCCCCCC)C1OC(=O)CCCCCCCC (mixture of isomers) [Ex 3.5] | g22 | sg22 | sg22 | sol* | gel | gel | gel | g22 | gel | gel | – | – |
| CCCCCCCCCC(=O)OCC1OC(OC2C(COC(=O)CCCCCCCCC)OC(OC(=O)CCCCCCCCC)C(OC(=O)CCCCCCCCC)C2OC(=O)CCCCCCCCC)C(OC(=O)CCCCCCCCC)C(OC(=O)CCCCCCCCC)C1OC(=O)CCCCCCCCC (mixture of isomers) [REF 4, reference compound] | – | – | – | – | – | – | – | – | – | – | – | Clarity % T [3, 11]: 0.36%; Clarity % T [3, 12]: 0.36%; Clarity Visual (appearance) [4]: opaque; Clarity Visual (assessment score) [4]: < −12; Clarity Visual Score [4, 12]: <−12 |
| CCCCCCCCC(=O)OC[C@H]1O[C@@H](O[C@H]2[C@H](OC(=O)CCCCCCCC)[C@@H](OC(=O)CCCCCCCC)C(OC(=O)CCCCCCCC)O[C@@H]2COC(=O)CCCCCCCC)[C@H](OC(=O)CCCCCCCC)[C@@H](OC(=O)CCCCCCCC)[C@@H]1OC(=O)CCCCCCCC (some centres unmarked) [REF 1, cellobiose octanonanoate] | – | – | – | – | – | – | – | – | – | – | – | Observation ([1]; 10% structurant in 60:40 Hydrogenated Polyisobutene (Panalene L14E):DC245, after 18 hrs at RT): Small crystals visible in gel after; Observation ([1]; 10% structurant in 60:40 Hydrogenated Polyisobutene (Panalene L14E):DC245, after 18 hrs at RT, listed as REF1): Small crystals visible in gel after 18; Observation ([1]; 10% structurant in 60:40 Panalene L14E:DC245, after 6 hrs at 37° C.): More and bigger crystals after 6 hrs; Observation ([1]; 10% structurant in 60:40 Panalene L14E:DC245, after 6 hrs at 37° C., listed as REF1): More and bigger crystals after 6 hrs at; Observation ([1]; 10% structurant in 60:40 Panalene L14E:DC245, after 3 days at 37° C.): Crystals throughout gel after 3 days; Observation ([1]; 10% structurant in 60:40 Panalene L14E:DC245, after 3 days at 37° C., listed as REF1): 37° C.; Crystals throughout gel after 3 days |
| cellobiose heptanonanoate monocyclohexanoate [Ex 1.12] | – | – | – | – | – | – | – | – | – | – | 3 | – |
| cellobiose heptanonanoate monocyclohexanoate [Ex 1.13] | – | – | – | – | – | – | – | – | – | – | 6 | – |
| cellobiose heptanonanoate monocyclohexanoate [Ex 1.14] | gel | gel | g22 | gel | gel | gel | gel | gel | gel | gel | 3 | gelling of IPM ([2]; 5% cellobiose ester in IPM): sol; gelling of IPM ([2]; 10% cellobiose ester in IPM): g4 |
| cellobiose heptanonanoate monocyclohexanoate [Ex 3.1] | – | – | – | – | – | – | – | – | – | – | 3 | – |
| cellobiose heptanonanoate monocyclohexanoate [Ex 3.2] | – | – | – | – | – | – | – | – | – | – | 5 | – |
